Assay results: patent publication US11655235B2, “Pyrrolidine and piperidine compounds” (YUHAN CORPORATION, priority 2019, dated 2023)
Where two headings read alike, the source gives them in different places.

Assays:
Assay type in all cases: biochemical
[1] = molecular target: T1, recombinant human PREP (Homo sapiens, UniProt P48147); assay: PREP inhibition, fluorogenic substrate Z-Gly-Pro-AMC; details: Inhibitory Activity (IC50, nM) PREP
T1 construct: purchased R&D System
T1 sequence (P48147 1-710): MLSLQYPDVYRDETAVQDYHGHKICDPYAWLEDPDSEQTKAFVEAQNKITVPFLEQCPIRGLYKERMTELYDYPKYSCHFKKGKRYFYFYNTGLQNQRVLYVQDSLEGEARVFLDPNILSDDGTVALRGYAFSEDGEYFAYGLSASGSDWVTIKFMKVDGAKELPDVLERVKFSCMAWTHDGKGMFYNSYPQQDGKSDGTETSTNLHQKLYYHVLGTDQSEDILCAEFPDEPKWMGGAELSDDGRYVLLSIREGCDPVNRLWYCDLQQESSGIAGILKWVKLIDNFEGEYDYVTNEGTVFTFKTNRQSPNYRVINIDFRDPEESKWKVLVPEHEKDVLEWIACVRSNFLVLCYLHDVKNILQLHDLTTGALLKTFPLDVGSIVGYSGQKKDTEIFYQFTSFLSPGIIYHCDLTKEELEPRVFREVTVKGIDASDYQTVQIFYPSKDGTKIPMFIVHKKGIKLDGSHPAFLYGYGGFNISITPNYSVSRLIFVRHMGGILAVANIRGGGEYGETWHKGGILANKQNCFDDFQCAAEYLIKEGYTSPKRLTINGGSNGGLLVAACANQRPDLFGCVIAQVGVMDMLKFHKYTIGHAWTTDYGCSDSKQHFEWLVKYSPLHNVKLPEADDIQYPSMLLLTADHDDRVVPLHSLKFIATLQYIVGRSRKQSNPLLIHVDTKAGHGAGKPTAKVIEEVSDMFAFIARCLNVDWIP
In short: (§1)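 Inhibitors are titrated in an 8-point series into the enzyme's assay buffer (DMSO no more than 0.5%). Substrate cleavage at 25 °C is followed by fluorescence, excitation 380 nm and emission 460 nm. IC50 values come from a four-variable logistic model.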

[2] = molecular target: T2, recombinant human DPP7 (Homo sapiens, UniProt Q9UHL4); assay: DPP7 inhibition, fluorogenic substrate Lys-Pro-AMC
T2 construct: purchased R&D Systems
In short: as §1

[3] = molecular target: T3, Recombinant human FAP (Homo sapiens, UniProt Q12884); assay: FAP FRET assay, FGF21-sequence FRET peptide substrate; details: FRET peptide with human FGF21 sequence, 6 μM, 37° C.
T3 construct: purchased R&D systems
T3 sequence (Q12884 1-760): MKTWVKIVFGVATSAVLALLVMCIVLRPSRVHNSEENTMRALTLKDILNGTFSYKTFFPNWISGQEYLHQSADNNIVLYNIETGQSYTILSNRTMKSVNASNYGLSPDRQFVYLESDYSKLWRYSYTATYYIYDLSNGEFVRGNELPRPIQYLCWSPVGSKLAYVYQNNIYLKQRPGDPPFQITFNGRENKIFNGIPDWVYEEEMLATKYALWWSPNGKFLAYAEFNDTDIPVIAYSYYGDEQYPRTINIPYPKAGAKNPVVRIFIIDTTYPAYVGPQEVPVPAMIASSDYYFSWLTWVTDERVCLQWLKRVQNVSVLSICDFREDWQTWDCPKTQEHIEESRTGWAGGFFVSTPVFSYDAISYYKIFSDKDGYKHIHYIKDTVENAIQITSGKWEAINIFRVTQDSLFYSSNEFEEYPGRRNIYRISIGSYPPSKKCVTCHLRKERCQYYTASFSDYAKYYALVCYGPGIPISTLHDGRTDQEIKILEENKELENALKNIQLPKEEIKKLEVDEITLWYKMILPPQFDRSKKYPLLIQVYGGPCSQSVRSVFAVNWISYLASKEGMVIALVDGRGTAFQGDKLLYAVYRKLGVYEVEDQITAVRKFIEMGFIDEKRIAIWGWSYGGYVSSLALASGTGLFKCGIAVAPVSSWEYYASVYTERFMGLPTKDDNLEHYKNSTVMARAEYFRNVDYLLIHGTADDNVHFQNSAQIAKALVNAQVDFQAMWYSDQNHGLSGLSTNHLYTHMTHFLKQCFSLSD
In short: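 FRET peptide bearing human FGF21 sequence (6 μM final) cleaved by 10 ng recombinant human FAP at 37° C in HEPES pH 7.2 buffer with NaCl, BSA and EDTA, DMSO up to 0.1%. Signal-rate decrease versus uninhibited control fitted to a four-variable logistic model for IC50.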

[4] = molecular target: T4, recombinant human DPP8 (Homo sapiens, UniProt Q6V1X1); assay: DPP8 inhibition, fluorogenic substrate Z-Ala-Pro-AMC
T4 construct: purchased PBS Bioscience
In short: as §1

[5] = molecular target: T5, recombinant human DPP9 (Homo sapiens, UniProt Q86TI2); assay: DPP9 inhibition, fluorogenic substrate H-Gly-Pro-AMC
T5 construct: purchased R&D Systems
In short: as §1

[6] = molecular target: DPP4 (Homo sapiens, UniProt P27487); assay: DPP4 inhibition, fluorogenic substrate H-Gly-Pro-AMC; parameters: purchased R&D Systems
[7] = molecular target: T3, Recombinant human FAP; assay: FAP inhibition, fluorogenic substrate Z-Gly-Pro-AMC
In short: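 Eight-point compound dilutions (≤0.1% DMSO) were incubated at 25° C with 10 ng recombinant human FAP in Tris pH 7.5/1 M NaCl/BSA buffer and Z-Gly-Pro-AMC. Inhibition was taken as % drop in fluorescence rate (380/460 nm) against uninhibited control; IC50 came from a four-parameter logistic fit.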

[8] = recombinant human FAP, substrate Z-Gly-Pro-AMC
[9] = 25° C., Z-Gly-Pro-AMC substrate
[10] = 25° C., Z-Ala-Pro-AMC substrate
[11] = 25° C., H-Gly-Pro-AMC substrate

T4 sequence (Q6V1X1 whole entry): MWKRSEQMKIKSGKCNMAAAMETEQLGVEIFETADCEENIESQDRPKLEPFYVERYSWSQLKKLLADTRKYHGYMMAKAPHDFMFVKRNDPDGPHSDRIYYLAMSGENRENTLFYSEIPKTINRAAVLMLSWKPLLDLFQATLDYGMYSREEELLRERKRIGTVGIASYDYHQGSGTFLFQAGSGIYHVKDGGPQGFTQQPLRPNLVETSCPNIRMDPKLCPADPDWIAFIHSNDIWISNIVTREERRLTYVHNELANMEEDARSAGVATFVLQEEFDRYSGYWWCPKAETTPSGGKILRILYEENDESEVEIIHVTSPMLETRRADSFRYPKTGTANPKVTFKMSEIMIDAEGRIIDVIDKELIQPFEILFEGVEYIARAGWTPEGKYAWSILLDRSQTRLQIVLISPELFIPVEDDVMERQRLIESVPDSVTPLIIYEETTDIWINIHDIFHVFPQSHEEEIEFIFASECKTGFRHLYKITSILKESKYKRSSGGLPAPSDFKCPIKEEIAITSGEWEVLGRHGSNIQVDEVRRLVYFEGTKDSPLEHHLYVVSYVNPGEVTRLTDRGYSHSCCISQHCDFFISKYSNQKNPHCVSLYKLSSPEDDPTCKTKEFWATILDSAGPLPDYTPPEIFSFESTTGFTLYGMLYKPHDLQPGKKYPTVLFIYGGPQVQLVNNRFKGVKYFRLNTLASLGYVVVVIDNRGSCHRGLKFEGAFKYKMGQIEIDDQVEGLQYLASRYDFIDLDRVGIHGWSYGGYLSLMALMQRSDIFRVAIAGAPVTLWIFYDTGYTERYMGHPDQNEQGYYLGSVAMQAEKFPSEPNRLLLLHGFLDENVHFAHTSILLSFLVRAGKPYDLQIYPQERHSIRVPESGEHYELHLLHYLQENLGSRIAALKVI
T5 sequence (Q86TI2 whole entry): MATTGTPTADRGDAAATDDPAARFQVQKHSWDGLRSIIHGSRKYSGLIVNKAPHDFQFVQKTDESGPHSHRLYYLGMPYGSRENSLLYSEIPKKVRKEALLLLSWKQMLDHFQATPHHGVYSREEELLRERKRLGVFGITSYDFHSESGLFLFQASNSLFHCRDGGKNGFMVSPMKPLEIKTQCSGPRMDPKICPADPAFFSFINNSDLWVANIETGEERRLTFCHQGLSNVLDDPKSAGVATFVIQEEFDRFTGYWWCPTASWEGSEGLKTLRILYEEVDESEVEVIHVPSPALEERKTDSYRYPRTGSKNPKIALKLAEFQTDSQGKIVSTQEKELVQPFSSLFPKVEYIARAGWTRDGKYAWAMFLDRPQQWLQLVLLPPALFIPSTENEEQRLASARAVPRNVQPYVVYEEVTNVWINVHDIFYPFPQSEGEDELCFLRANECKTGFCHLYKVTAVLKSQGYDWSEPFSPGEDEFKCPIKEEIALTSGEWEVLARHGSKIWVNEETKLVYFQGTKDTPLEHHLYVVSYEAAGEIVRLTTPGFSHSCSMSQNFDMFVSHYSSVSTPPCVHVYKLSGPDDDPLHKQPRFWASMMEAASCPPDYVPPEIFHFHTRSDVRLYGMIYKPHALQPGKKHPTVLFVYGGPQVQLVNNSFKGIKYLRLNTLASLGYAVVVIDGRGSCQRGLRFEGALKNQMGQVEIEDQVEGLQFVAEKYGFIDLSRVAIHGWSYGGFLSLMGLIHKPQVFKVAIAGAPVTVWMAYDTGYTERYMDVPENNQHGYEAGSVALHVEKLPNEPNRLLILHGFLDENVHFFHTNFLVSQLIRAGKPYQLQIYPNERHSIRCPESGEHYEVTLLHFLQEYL
DPP4, sequence (P27487 whole entry): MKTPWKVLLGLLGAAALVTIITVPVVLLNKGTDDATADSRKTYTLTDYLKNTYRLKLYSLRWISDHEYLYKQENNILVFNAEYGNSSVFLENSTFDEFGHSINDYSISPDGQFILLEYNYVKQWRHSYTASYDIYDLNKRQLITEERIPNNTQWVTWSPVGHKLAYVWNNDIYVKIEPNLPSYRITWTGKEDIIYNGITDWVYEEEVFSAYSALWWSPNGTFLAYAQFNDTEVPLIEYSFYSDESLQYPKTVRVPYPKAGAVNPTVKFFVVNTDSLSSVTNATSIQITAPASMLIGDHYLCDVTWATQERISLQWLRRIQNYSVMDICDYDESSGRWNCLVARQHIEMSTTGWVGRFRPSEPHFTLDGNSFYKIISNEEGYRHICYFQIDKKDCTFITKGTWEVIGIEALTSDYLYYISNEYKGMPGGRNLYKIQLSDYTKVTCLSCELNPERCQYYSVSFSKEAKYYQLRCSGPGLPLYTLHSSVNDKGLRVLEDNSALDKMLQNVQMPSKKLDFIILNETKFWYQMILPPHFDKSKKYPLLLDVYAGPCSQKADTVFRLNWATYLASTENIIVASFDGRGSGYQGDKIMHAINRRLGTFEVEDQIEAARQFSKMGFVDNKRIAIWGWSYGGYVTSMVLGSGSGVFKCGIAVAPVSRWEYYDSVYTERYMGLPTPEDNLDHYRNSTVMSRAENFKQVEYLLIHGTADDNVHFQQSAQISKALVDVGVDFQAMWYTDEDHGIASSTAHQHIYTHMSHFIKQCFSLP

Structure (SMILES) | IC50 ([1]; recombinant human PREP) [nM] | IC50 ([2]; recombinant human DPP7) [nM] | IC50 [3] [nM] | IC50 ([4]; recombinant human DPP8) [nM] | IC50 ([5]; recombinant human DPP9) [nM] | IC50 ([6]; recombinant human DPP4) [nM] | IC50 [7, 8] [nM] | IC50 [1, 9] [nM] | IC50 [2] [nM] | IC50 [7, 9] [nM] | IC50 [4, 10] [nM] | IC50 [5, 11] [nM] | IC50 [6, 11] [nM] | inhibition at 1 µM ([6]; read-out: hDPP4 inhibition % at 1 μM) [%]
CN(c1cccc2ncc(F)cc12)[C@H]1CCN(CC(=O)N2C[C@@H](F)C[C@H]2C#N)C1 [Example 156, (2S,4S)-4-fluoro-1-(2-((S)-3-((3-fluoroquinolin-5-yl)(methyl)amino)pyrrolidin-1-yl)acetyl)pyrrolidine-2-carbonitrile] | 1020 | 5060 | 2.7 | 12000 | 6790 | 736 |  |  |  |  |  |  |  | 
N#C[C@@H]1C[C@H](F)CN1C(=O)CN1CCC(Nc2ccc(C(=O)Nc3cccnc3)c3ncccc23)CC1 [Example 405, 5-[[1-[2-oxo-2-[(2S,4S)-2-cyano-4-fluoro-pyrrolidin-1-yl]ethyl]-4-piperidyl]amino]-N-(3-pyridyl)quinoline-8-carboxamide] | 597 | 392 | 1.9 | 66.7 | 398 | 2160 |  |  |  |  |  |  |  | 
N#C[C@@H]1C[C@H](F)CN1C(=O)CN1CC[C@H](Nc2ccc(F)c3ncccc23)C1 [Example 264, (2S,4S)-4-fluoro-1-[2-[(3S)-3-[(8-fluoro-5-quinolyl)amino]pyrrolidin-1-yl]acetyl]pyrrolidine-2-carbonitrile] |  | 2270 | 2.4 | 3600 |  | 1040 | 1.3 |  |  |  |  |  |  | 
N#C[C@@H]1CC(F)(F)CN1C(=O)CN1CC[C@H](Oc2cccc3cnccc23)C1 [Example 106, (S)-4,4-difluoro-1-(2-((S)-3-(isoquinolin-5-yloxy)pyrrolidin-1-yl)acetyl)pyrrolidine-2-carbonitrile] |  |  |  |  |  |  |  | 4310 | 41.6 | 1.88 | 8280 | 10300 | > 1000 | 
N#C[C@@H]1C[C@H](F)CN1C(=O)CN1CCC(Oc2cccc3cnccc23)CC1 [Example 421, (2S,4S)-4-fluoro-1-[2-[4-(5-isoquinolyloxy)-1-piperidyl]acetyl]pyrrolidine-2-carbonitrile] | 2610 | > 100000 |  | 1580 | 4160 | 7530 | 2.5 |  |  |  |  |  |  | 
N#C[C@@H]1CCCN1C(=O)CN1CC[C@@H](Nc2cnc3ccccc3c2)C1 [Example 17, (S)-1-(2-((R)-3-(quinolin-3-ylamino)pyrrolidin-1-yl)acetyl)pyrrolidine-2-carbonitrile] |  |  |  |  |  |  |  | 6960 | 1610 | 6.24 | > 10000 | > 100000 | > 1000 | 
N#C[C@@H]1CCCN1C(=O)CN1CC[C@H](NC(=O)c2csc3ccccc23)C1 [Example 41, N—((S)-1-(2-((S)-2-cyanopyrrolidin-1-yl)-2-oxoethyl)pyrrolidin-3-yl)benzo[b]thiophene-3-carboxamide] |  |  |  |  |  |  |  | 3190 | 4130 | 3.7 | 62100 | > 100000 | > 1000 | 
N#C[C@@H]1C[C@H](F)CN1C(=O)CN1CC[C@H](Nc2cccc3ncc(Cl)cc23)C1 [Example 256, (2S,4S)-4-fluoro-1-[2-[(3S)-3-[(3-chloro-5-quinolyl)amino]pyrrolidin-1-yl]acetyl]pyrrolidine-2-carbonitrile] | 603 | 1790 |  | 3350 | 6960 | 1880 | 0.8 |  |  |  |  |  |  | 
N#C[C@@H]1CC(F)(F)CN1C(=O)CN1CC[C@H](Nc2ccc(-c3ccccc3)cc2)C1 [Example 14, (S)-1-(2-((S)-3-([1,1′-biphenyl]-4-ylamino)pyrrolidin-1-yl)acetyl)-4,4-difluoropyrrolidine-2-carbonitrile] |  |  |  |  |  |  |  | > 100000 | 126 | 18.7 | 676 | 11100 | > 1000 | 
CN(c1cncc2ccoc12)C1CCN(CC(=O)N2C[C@@H](F)C[C@H]2C#N)CC1 [Example 350, (2S,4S)-4-fluoro-1-[2-[4-[furo[3,2-c]pyridin-7-yl(methyl)amino]-1-piperidyl]acetyl]pyrrolidine-2-carbonitrile] | 625 | 9080 |  | 17500 | 27500 | 7900 | 8.2 |  |  |  |  |  |  | 
N#C[C@@H]1CCCN1C(=O)CN1CC[C@H](NC(=O)c2coc3cc(O)ccc23)C1 [Example 49, N—((S)-1-(2-((S)-2-cyanopyrrolidin-1-yl)-2-oxoethyl)pyrrolidin-3-yl)-6-hydroxybenzofuran-3-carboxamide] |  |  |  |  |  |  |  | 8360 | 4370 | 4.42 | 12300 | 92600 |  | 0.6
N#C[C@@H]1C[C@H](F)CN1C(=O)CN1CC[C@H](Nc2cc(C(F)(F)F)cc3ncccc23)C1 [Example 258, (2S,4S)-4-fluoro-1-[2-[(3S)-3-[[7-(trifluoromethyl)-5-quinolyl]amino]pyrrolidin-1-yl]acetyl]pyrrolidine-2-carbonitrile] | 1280 | 1390 |  | > 100000 | 7970 | 1830 | 1 |  |  |  |  |  |  | 
N#Cc1cnc2cccc(N[C@H]3CCN(CC(=O)N4C[C@@H](F)C[C@H]4C#N)C3)c2c1 [Example 253, 5-[[(3S)-1-[2-oxo-2-[(2S,4S)-2-cyano-4-fluoro-pyrrolidin-1-yl]ethyl]pyrrolidin-3-yl]amino]quinoline-3-carbonitrile] | 2220 | 2190 |  | 2670 | 5360 | 2310 | 0.9 |  |  |  |  |  |  | 
Cc1cccc2c(NC3CCN(CC(=O)N4CCC[C@H]4C#N)CC3)nc(Cl)nc12 [Example 359, (2S)-1-[2-[4-[(2-chloro-8-methyl-quinazolin-4-yl)amino]-1-piperidyl]acetyl]pyrrolidine-2-carbonitrile] | 6000 | 971 |  | 8220 | 31300 | > 10000 | 2.3 |  |  |  |  |  |  | 
N#C[C@@H]1CCCN1C(=O)CN1CC[C@H](Oc2ccc(Cl)c3cccnc23)C1 [Example 81, (S)-1-(2-((S)-3-((5-chloroquinolin-8-yl)oxy)pyrrolidin-1-yl)acetyl)pyrrolidine-2-carbonitrile] |  |  |  |  |  |  |  | 3930 | 5940 | 7.6 | 27400 | 84900 | > 1000 | 
